Data from ChEMBL document CHEMBL5385848, “Discovery of novel hydroxyamidine based indoleamine 2,3-dioxygenase 1 (IDO1) and thioredoxin reductase 1 (TrxR1) dual inhibitors” (Eur J Med Chem, 2023).
Active and inactive are the calls of the source. The calls are words filed in the database; no cut-off is given here.

Legend:
HeLa [1] = test: Cytotoxicity against human HeLa cells incubated for 24 hrs in presence of NAC CCK-8 assay; format: functional, cell-based
[2] = molecular target: T1, Thioredoxin reductase 1, cytoplasmic (Homo sapiens, UniProt Q16881); test: Inhibition of TrxR1 in human HeLa cells incubated for 24 hrs; format: cell-based
T1 sequence (Q16881 whole entry): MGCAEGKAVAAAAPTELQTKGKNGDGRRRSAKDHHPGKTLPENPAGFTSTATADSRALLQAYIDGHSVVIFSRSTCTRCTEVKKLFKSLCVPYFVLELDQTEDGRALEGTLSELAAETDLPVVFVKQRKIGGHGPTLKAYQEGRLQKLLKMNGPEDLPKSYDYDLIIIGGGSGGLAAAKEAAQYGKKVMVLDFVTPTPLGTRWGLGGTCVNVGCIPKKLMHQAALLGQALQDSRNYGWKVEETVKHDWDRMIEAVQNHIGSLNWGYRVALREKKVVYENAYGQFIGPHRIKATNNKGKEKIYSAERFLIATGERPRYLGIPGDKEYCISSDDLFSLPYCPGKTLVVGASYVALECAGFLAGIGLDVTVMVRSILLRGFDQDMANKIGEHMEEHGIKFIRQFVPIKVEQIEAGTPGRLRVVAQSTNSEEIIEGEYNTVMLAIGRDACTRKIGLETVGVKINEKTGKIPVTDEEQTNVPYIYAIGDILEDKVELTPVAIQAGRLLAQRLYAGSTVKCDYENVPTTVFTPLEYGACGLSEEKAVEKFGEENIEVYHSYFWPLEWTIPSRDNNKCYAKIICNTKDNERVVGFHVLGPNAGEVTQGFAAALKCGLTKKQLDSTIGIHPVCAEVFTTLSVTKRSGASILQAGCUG

[3] = Toxicity in athymic BALB/c mouse xenografted with human HCT-116 cells assessed as change in kidney morphology at 15 to 60 mg/kg, ig administered daily for 28 days and measured every 4 days; format: organism-based; conditions: in vivo, po, 672 h, dose 15-60 mg/kg, time 28 day
[4] = molecular target: Indoleamine 2,3-dioxygenase 1 (Mus musculus) (UniProt P28776); test: In vivo inhibition of IDO1 in C57BL/6 mouse assessed as reduction in plasma Kyn/Trp ratio at 60 mg/kg, po administered once daily by LC-MS/MS analysis; format: functional, organism-based
HeLa [5] = test: Induction of cell cycle arrest in human HeLa cells assessed as G1/S phase arrest at 2.5 to 10 uM pretreated with NAC for 2 hrs followed by compound addition and measured after 12 hrs by PI staining based flow cytometry analysis; format: functional; conditions: dose 2.5-10 µM
HCT-116 [6] = test: Antitumor activity against human HCT-116 cells xenografted in ig dosed athymic nude BALB/c mouse assessed as tumor growth inhibition administered daily for 28 days and measured every 4 days; format: functional, organism-based; conditions: dose 15-60 mg/kg, time 28.0 day
HCT-116 [7] = test: Induction of apoptosis in human HCT-116 cells assessed as caspase-3 activation incubated for 24 hrs; format: functional, cell-based; conditions: dose 2.5-10 µM
HCT-116 [8] = test: Induction of apoptosis in human HCT-116 cells assessed as apoptotic rate at 10 uM pretreated with NAC incubated for 24 hrs by Annexin-V/PI staining based flow cytometry analysis (reference value: 9.8 +/- 1.59%); format: functional
HeLa [9] = test: Cytotoxicity against human HeLa cells incubated for 24 hrs CCK-8 assay; format: functional, cell-based
[10] = Toxicity in athymic BALB/c mouse xenografted with human HCT-116 cells assessed as effect on body weight at 15 to 60 mg/kg, ig administered daily for 28 days and measured every 4 days; format: organism-based; conditions: in vivo, po, 672 h, dose 15-60 mg/kg, time 28 day
[11] = molecular target: Indoleamine 2,3-dioxygenase 1 (Mus musculus) (UniProt P28776); test: In vivo inhibition of IDO1 in BALB/c mouse implanted with mouse CT-26 cells assessed as reduction in plasma Kyn/Trp ratio at 60 mg/kg, po administered once daily by LC-MS/MS analysis; format: functional, organism-based
[12] = molecular target: T2, Thioredoxin reductase 1, cytoplasmic (Mus musculus, UniProt Q9JMH6); test: Inhibition of TrxR1 in mouse CT26 cells incubated for 24 hrs; format: cell-based
T2 sequence (Q9JMH6 whole entry): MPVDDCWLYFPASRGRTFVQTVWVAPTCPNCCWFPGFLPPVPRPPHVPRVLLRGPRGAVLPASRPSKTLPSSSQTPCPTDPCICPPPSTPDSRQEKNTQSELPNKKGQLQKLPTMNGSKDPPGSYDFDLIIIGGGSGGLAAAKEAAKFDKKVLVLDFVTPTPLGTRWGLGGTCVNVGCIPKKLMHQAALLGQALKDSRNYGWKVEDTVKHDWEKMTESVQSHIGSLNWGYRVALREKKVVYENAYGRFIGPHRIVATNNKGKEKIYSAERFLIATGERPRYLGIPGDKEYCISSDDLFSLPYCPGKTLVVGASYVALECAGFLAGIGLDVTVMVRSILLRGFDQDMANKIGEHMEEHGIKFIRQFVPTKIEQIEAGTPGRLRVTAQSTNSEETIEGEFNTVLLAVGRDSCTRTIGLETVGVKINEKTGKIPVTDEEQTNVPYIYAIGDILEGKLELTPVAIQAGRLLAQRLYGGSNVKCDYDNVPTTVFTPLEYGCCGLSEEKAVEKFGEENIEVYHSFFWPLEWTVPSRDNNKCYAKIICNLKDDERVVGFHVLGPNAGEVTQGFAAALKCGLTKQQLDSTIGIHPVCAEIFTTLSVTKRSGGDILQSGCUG

[13] = molecular target: Indoleamine 2,3-dioxygenase 1 (Mus musculus) (UniProt P28776); test: In vivo inhibition of IDO1 in C57BL/6 mouse assessed as reduction in plasma Kyn level at 60 mg/kg, po administered once daily by LC-MS/MS analysis; format: functional, organism-based
HeLa [14] = test: Cytotoxicity against TrxR1 knockdown human HeLa cells incubated for 24 hrs by CCK-8 assay (reference value: 13.79 +/- 2 uM); format: functional, cell-based
HCT-116 [15] = test: Antitumor activity against human HCT-116 cells xenografted in athymic nude BALB/c mouse assessed as increase in necrosis of tumor cells at 15 to 60 mg/kg, ig administered daily for 28 days and measured every 4 days; format: functional, organism-based; conditions: dose 15-60 mg/kg, time 28.0 day
[16] = molecular target: Indoleamine 2,3-dioxygenase 1 (Homo sapiens, UniProt P14902); test: Inhibition of recombinant human IDO1 using L-Trp as substrate incubated for 1 hr
HeLa [17] = test: Cytotoxicity against human HeLa cells transfected with TrxR1 siRNA incubated for 24 hrs by CCK-8 assay (reference value: 9.74 +/- 1.64 uM); format: functional, cell-based
[18] = molecular target: T1, Thioredoxin reductase 1, cytoplasmic; test: Inhibition of TrxR1 in human HCT-116 cells incubated for 24 hrs; format: cell-based
HCT-116 [19] = test: Cytotoxicity against human HCT-116 cells incubated for 24 hrs in presence of NAC CCK-8 assay; format: functional, cell-based; conditions: HCT-116, 24 h
[20] = Toxicity in athymic nude BALB/c mouse assessed as weight gain at 15 to 60 mg/kg, ig administered daily for 28 days and measured every 4 days; format: organism-based; conditions: in vivo, po, 672 h, dose 15-60 mg/kg, time 28 day
HCT-116 [21] = test: Antitumor activity against human HCT-116 cells xenografted in athymic nude BALB/c mouse assessed as reduction in mitosis of tumor cells at 15 to 60 mg/kg, ig administered daily for 28 days and measured every 4 days; format: functional, organism-based; conditions: dose 15-60 mg/kg, time 28.0 day
[22] = Toxicity in athymic BALB/c mouse xenografted with human HCT-116 cells assessed as change in liver morphology at 15 to 60 mg/kg, ig administered daily for 28 days and measured every 4 days; format: organism-based; conditions: in vivo, po, 672 h, dose 15-60 mg/kg, time 28 day

Chain of Indoleamine 2,3-dioxygenase 1 (Mus musculus) (P28776 whole entry, looked up): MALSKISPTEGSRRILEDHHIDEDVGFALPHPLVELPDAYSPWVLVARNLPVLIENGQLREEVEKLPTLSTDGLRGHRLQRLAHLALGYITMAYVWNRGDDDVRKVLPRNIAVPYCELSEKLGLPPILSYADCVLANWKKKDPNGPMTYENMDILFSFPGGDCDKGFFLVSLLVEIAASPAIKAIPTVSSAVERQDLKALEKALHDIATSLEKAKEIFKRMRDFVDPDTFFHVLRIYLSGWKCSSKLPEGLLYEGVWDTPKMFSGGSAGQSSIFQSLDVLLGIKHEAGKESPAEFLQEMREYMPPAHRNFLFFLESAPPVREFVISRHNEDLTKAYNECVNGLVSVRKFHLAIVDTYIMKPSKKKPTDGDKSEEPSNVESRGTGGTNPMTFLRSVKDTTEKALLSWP
Chain of Indoleamine 2,3-dioxygenase 1 (P14902 whole entry): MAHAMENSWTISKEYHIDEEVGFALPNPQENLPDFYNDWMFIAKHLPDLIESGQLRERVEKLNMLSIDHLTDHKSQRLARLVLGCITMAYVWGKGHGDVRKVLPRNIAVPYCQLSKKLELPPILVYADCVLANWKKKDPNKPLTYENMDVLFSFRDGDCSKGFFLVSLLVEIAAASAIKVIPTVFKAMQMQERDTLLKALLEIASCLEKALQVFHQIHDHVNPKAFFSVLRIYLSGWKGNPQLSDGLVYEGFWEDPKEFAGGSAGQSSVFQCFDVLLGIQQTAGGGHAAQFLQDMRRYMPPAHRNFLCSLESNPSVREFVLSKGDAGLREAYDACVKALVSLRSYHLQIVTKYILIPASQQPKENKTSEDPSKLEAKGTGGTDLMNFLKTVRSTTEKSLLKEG

EC50 [2]: 13.1 µM
Activity [4]: Active
Activity [11]: Active
EC50 [12]: 25.7 µM
Activity [13]: Active
IC50 [16]: 0.05 µM
EC50 [18]: 3.14 µM
Structure (SMILES): O=C(Cc1ccc(O)cc1)Nc1nnc(CCCNc2nonc2/C(=N\O)Nc2ccc(F)c(Br)c2)s1
IC50 (HeLa [1]): 74.2 µM
Activity [3]: Non-Toxic
Activity (HeLa [5]): Active
Activity (HCT-116 [6]): Active
Activity (HCT-116 [7]): Dose-Dependent Effect
Activity (HCT-116 [8]): 15.21%
IC50 (HeLa [9]): 16.1 µM
Activity [10]: Non-Toxic
IC50 (HeLa [14]): 7.2 µM
Activity (HCT-116 [15]): Active
IC50 (HeLa [17]): 4.86 µM
IC50 (HCT-116 [19]): 60.8 µM
Activity [20]: Toxic
Activity (HCT-116 [21]): Active
Activity [22]: Non-Toxic
